The test system of the assay is P388 leukemia ip, CD2F1 mice, survival T/C. The experiment in a line: NCI In Vivo Anticancer Drug Screen. Data for tumor model P388 Leukemia (intraperitoneal) in CD2F1 (CDF1) mice. The settings on record: endpoint: median survival time, higher = longer survival. The method, boiled down: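 Mice carrying the transplanted tumor received test compound or vehicle. Survival was recorded in each group, and the value is the treated-group measurement divided by that of the vehicle-treated control group.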

[1] abbreviates: dose: 50.0 mg/kg/injection, schedule: Q01DX005 (ip), vehicle: Klucel (hydroxypropylcellulose) (HPC).
The mark [2] stands for this setting: dose: 60.0 mg/kg/injection, schedule: Q01DX005 (ip), vehicle: saline with Tween-80.
[3] abbreviates: dose: 50.0 mg/kg/injection, schedule: Q01DX009 (ip), vehicle: saline with Tween-80.
[4] abbreviates: dose: 100.0 mg/kg/injection, schedule: Q01DX009 (ip), vehicle: saline with Tween-80.
[5] abbreviates: dose: 200.0 mg/kg/injection, schedule: Q01DX009 (ip), vehicle: saline with Tween-80.
Setting [6] is: dose: 15.0 mg/kg/injection, schedule: Q01DX005 (ip), vehicle: saline with Tween-80.
[7] abbreviates: dose: 30.0 mg/kg/injection, schedule: Q01DX005 (ip), vehicle: saline with Tween-80.
Where [8] appears, read: dose: 50.0 mg/kg/injection, schedule: Q01DX005 (ip), vehicle: saline with Tween-80.
Where [9] appears, read: dose: 100.0 mg/kg/injection, schedule: Q01DX005 (ip), vehicle: saline with Tween-80.
Setting [10] is: dose: 200.0 mg/kg/injection, schedule: Q01DX005 (ip), vehicle: saline with Tween-80.

“And” between values parts separate entries of the source, which are not always exact repeats. Equal entries are not always repeated. Inconclusive results and toxic doses are left out. Square brackets hold non-standard residues; d marks the D form. Peptide text beside a SMILES is read from it. ξ: configuration not given here. ξN = NC(=O)CC(N)C(=O)O

We go through 25 compounds from PubChem BioAssay AID330 (DTP/NCI, 2004).

Consider `CC1=C(C#N)C(=O)NC1(C)O` (centres undefined), for which the T/C runs as follows: under setting [1], 98 % of control and 95 % of control; (dose: 100.0 mg/kg/injection, schedule: Q01DX005 (ip), vehicle: Klucel (hydroxypropylcellulose) (HPC)) 100 % of control; (dose: 200.0 mg/kg/injection, schedule: Q01DX005 (ip), vehicle: Klucel (hydroxypropylcellulose) (HPC)) 100 % of control and 101 % of control.
With `O=C1OC(c2ccccc2)(c2ccccc2)C2CC12c1ccccc1` (centres undefined), the T/C is, setting by setting: (dose: 100.0 mg/kg/injection, schedule: Q01DX001 (ip), vehicle: Klucel (hydroxypropylcellulose) (HPC)) 95 % of control; (dose: 200.0 mg/kg/injection, schedule: Q01DX001 (ip), vehicle: Klucel (hydroxypropylcellulose) (HPC)) 95 % of control; (dose: 400.0 mg/kg/injection, schedule: Q01DX001 (ip), vehicle: Klucel (hydroxypropylcellulose) (HPC)) 88 % of control.
Consider `COc1ccc(C(c2c(O)c3ccccc3oc2=O)c2c(O)c3ccccc3oc2=O)c(OC)c1`, for which the T/C runs as follows: under setting [2], 106 % of control; (dose: 120.0 mg/kg/injection, schedule: Q01DX005 (ip), vehicle: saline with Tween-80) 98 % of control; (dose: 240.0 mg/kg/injection, schedule: Q01DX005 (ip), vehicle: saline with Tween-80) 94 % of control.
Turning to `CN(C)CCCNc1nnc(NCCCN(C)C)c2cc3ccccc3cc12`, the T/C is 98 % of control (dose: 7.5 mg/kg/injection, schedule: Q01DX005 (ip), vehicle: saline); 94 % of control (dose: 15.0 mg/kg/injection, schedule: Q01DX005 (ip), vehicle: saline); 110 % of control (dose: 30.0 mg/kg/injection, schedule: Q01DX005 (ip), vehicle: saline).
As for `CN(C)C(=O)c1ccc([N+](=O)[O-])cc1`, the T/C runs as follows: (dose: 25.0 mg/kg/injection, schedule: Q01DX009 (ip), vehicle: saline with Tween-80) 119 % of control; under setting [3], 98 % of control; under setting [4], 96 % of control; under setting [5], 104 % of control.
For `COC(=O)c1ccc(Cl)cc1O`, the T/C was 92 % of control (dose: 12.5 mg/kg/injection, schedule: Q01DX009 (ip), vehicle: distilled water + Tween-80); 100 % of control (dose: 25.0 mg/kg/injection, schedule: Q01DX009 (ip), vehicle: distilled water + Tween-80); 102 % of control (dose: 50.0 mg/kg/injection, schedule: Q01DX009 (ip), vehicle: distilled water + Tween-80); 102 % of control (dose: 100.0 mg/kg/injection, schedule: Q01DX009 (ip), vehicle: distilled water + Tween-80); 92 % of control (dose: 200.0 mg/kg/injection, schedule: Q01DX009 (ip), vehicle: distilled water + Tween-80).
For `COc1ccc(N=N/N=c2\sc3cc(Cl)ccc3n2C)cc1`, the T/C reads like this: (dose: 7.5 mg/kg/injection, schedule: Q01DX005 (ip), vehicle: saline with Tween-80) 115 % of control; under setting [6], 113 % of control and 121 % of control; under setting [7], 115 % of control and 124 % of control; under setting [2], 112 % of control.
As for `CCOc1ccc2nc3cc(N=Nc4ccc(N(C)C)cc4)ccc3c(N)c2c1`, the T/C is 110 % of control under setting [3] and 110 % of control under setting [4].
On to `CC1OC(=O)C(C)C1=O` (centres undefined), for which the T/C is 104 % of control (dose: 50.0 mg/kg/injection, schedule: Q01DX005 (ip), vehicle: saline); 92 % of control (dose: 100.0 mg/kg/injection, schedule: Q01DX005 (ip), vehicle: saline); 113 % of control (dose: 200.0 mg/kg/injection, schedule: Q01DX005 (ip), vehicle: saline).
Turning to `CN1C(=O)N(C)P123OP1(N(C)C(=O)N1C)(N(C)C(=O)N2C)N(C)C(=O)N3C`, the T/C was 103 % of control (dose: 60.0 mg/kg/injection, schedule: Q01DX005 (ip), vehicle: saline); 97 % of control (dose: 120.0 mg/kg/injection, schedule: Q01DX005 (ip), vehicle: saline); 89 % of control (dose: 240.0 mg/kg/injection, schedule: Q01DX005 (ip), vehicle: saline).
Take `C[C@]12CC[C@H](O)C[C@@H]1CC[C@@H]1[C@@H]2C(=O)C[C@@]2(C)[C@H]1CC[C@]2(O)C(=O)CBr`: the T/C (dose: 264.0 mg/kg/injection, schedule: Q04DX003 (ip), vehicle: saline with Tween-80) is 109 % of control; the T/C (dose: 400.0 mg/kg/injection, schedule: Q04DX003 (ip), vehicle: saline with Tween-80) was 100 % of control; the T/C (dose: 600.0 mg/kg/injection, schedule: Q04DX003 (ip), vehicle: saline with Tween-80) was 95 % of control.
With `O=NN(CCCl)C(=O)NCCSSCCNC(=O)N(CCCl)N=O` (tested in a mixture with another compound), the T/C is, setting by setting: (dose: 12.5 mg/kg/injection, schedule: Q01DX005 (ip), vehicle: Klucel (hydroxypropylcellulose) (HPC)) 179 % of control and 211 % of control; (dose: 25.0 mg/kg/injection, schedule: Q01DX005 (ip), vehicle: Klucel (hydroxypropylcellulose) (HPC)) 224 % of control; under setting [1], 120 % of control and 201 % of control.
Turning to `Cc1ccc(C(N)=Nc2ccccc2)cc1`, the T/C under setting [2] is 100 % of control.
As for `Cn1ccoc1=NC1CCCCC1`, the T/C under setting [3] was 110 % of control, the T/C under setting [4] is 100 % of control and the T/C under setting [5] is 100 % of control.
For the compound `CC(C(=O)c1ccc(O)cc1)C1(O)C(=O)Nc2ccccc21` (centres undefined), the T/C is 98 % of control under setting [8], 100 % of control under setting [9] and 101 % of control under setting [10].
As for `NCC(=O)NC(CC(N)=O)C(=O)O` (centres undefined) (H-Gly-[ξN]-OH), the T/C (dose: 50.0 mg/kg/injection, schedule: Q01DX009 (ip), vehicle: saline) is 119 % of control; the T/C (dose: 100.0 mg/kg/injection, schedule: Q01DX009 (ip), vehicle: saline) is 109 % of control; the T/C (dose: 200.0 mg/kg/injection, schedule: Q01DX009 (ip), vehicle: saline) was 114 % of control.
Take `COc1cc(NC(=O)OCc2cccnc2)cc(OC)c1OC`: the T/C is 98 % of control under setting [8], 98 % of control under setting [9] and 93 % of control under setting [10].
For `Cc1ccc(/C=C/C(=O)/C=C/c2ccc(C)o2)o1`, the T/C (dose: 25.0 mg/kg/injection, schedule: Q01DX005 (ip), vehicle: DMSO) is 107 % of control; the T/C (dose: 50.0 mg/kg/injection, schedule: Q01DX005 (ip), vehicle: DMSO) is 104 % of control; the T/C under setting [8] is 99 % of control; the T/C (dose: 100.0 mg/kg/injection, schedule: Q01DX005 (ip), vehicle: DMSO) is 104 % of control; the T/C under setting [9] was 96 % of control; the T/C (dose: 200.0 mg/kg/injection, schedule: Q01DX005 (ip), vehicle: DMSO) was 97 % of control. Besides, the T/C by setting is: under setting [10], 100 % of control; (dose: 400.0 mg/kg/injection, schedule: Q01DX005 (ip), vehicle: DMSO) 101 % of control.
For `Fc1ccc(NC(=S)NC2CC2)c(F)c1`, the T/C under setting [3] is 104 % of control and the T/C under setting [4] was 104 % of control.
On to `Clc1ccc(C(Nc2nncs2)Nc2nncs2)cc1Cl`, for which the T/C is 94 % of control (dose: 60.0 mg/kg/injection, schedule: Q01DX005 (ip), vehicle: Klucel (hydroxypropylcellulose) (HPC)); 96 % of control (dose: 120.0 mg/kg/injection, schedule: Q01DX005 (ip), vehicle: Klucel (hydroxypropylcellulose) (HPC)); 102 % of control (dose: 240.0 mg/kg/injection, schedule: Q01DX005 (ip), vehicle: Klucel (hydroxypropylcellulose) (HPC)).
As for `O=c1oc2ccccc2c(O)c1C(c1ccc(Cl)cc1)c1c(O)c2ccccc2oc1=O`, the T/C is, setting by setting: under setting [6], 94 % of control; under setting [7], 93 % of control.
Regarding `c1ccc2c(-c3ccncc3)c3c(ccc4ccccc43)cc2c1`, the T/C was 100 % of control under setting [8], 98 % of control under setting [9] and 89 % of control under setting [10].
With `Nc1nc(N)nc(Cc2ccccc2)n1`, the T/C runs as follows: under setting [3], 104 % of control; under setting [4], 93 % of control; under setting [5], 95 % of control.
`COc1cc(C=Nc2cccc(F)c2)ccc1N(CCCl)CCCl`: the T/C is, setting by setting: (dose: 0.25 mg/kg/injection, schedule: Q01DX009 (ip), vehicle: other) 109 % of control; (dose: 0.5 mg/kg/injection, schedule: Q01DX009 (ip), vehicle: other) 113 % of control; (dose: 1.0 mg/kg/injection, schedule: Q01DX009 (ip), vehicle: other) 122 % of control.
Take `O=c1c2cc3c(=O)n(CC[P+](c4ccccc4)(c4ccccc4)c4ccccc4)c(=O)c3cc2c(=O)n1CC[P+](c1ccccc1)(c1ccccc1)c1ccccc1`: the T/C was 99 % of control (dose: 0.78 mg/kg/injection, schedule: Q01DX009 (ip), vehicle: water); 97 % of control (dose: 1.56 mg/kg/injection, schedule: Q01DX009 (ip), vehicle: water); 93 % of control (dose: 3.13 mg/kg/injection, schedule: Q01DX009 (ip), vehicle: water).
